Data on one compound can be found in US8372982B2, “Fungicidal N-(Phenylcycloalkyl)carboxamide, N-(Benzylcycloalkyl)carboxamide and thiocarboxamide derivatives” (Bayer Cropscience AG, priority 2009, dated 2013).

This assay has as its system Leptosphaeria nodosum. The experiment in a line: In vivo comparative test on Leptosphaeria nodoruin (wheat)/preventive. As to conditions: dose of 500 ppm, preventive, evaluated 10 days after the inoculation. As to the method:
Solvent: 49 parts by weight of N,N-dimethylacetamide Emulsifier: 1 part by weight of alkylaryl polyglycol ether To produce a suitable preparation of active compound, 1 part by weight of active compound or the compound combination is mixed with the stated amounts of solvent and emulsifier, and the concentrate is diluted with water to the desired concentration. To test for protective activity, young plants are sprayed with a preparation of active compound or active compound combination at the stated rate of application. After the spray coating has dried on, the plants are sprayed with a spore suspension of Leptosphaeria nodosum. The plants remain for 48 hours in an incubation cabinet at 20° C. and a relative atmospheric humidity of 100%. The plants are placed in a greenhouse at a temperature of approximately 15° C. and a relative atmospheric humidity of approximately 80%. The test is evaluated 10 days after the inoculation. 0% means an efficacy which corresponds to that of the control, while an efficacy of 100% means that no disease is observed. […]

Molecules are shown by their SMILES.

For the compound `Cn1cc(C(=O)N[C@@H]2C[C@@H]2c2ccc(Cl)cc2)c(C(F)F)n1` (relative stereo) [Example 1.001, cis-N-[2-(4-chlorophenyl)cyclopropyl]-3-(difluoro-methyl)-1-methyl-1H-pyrazole-4-carboxamide], the disease control entry is reported as “less than 10%”.
